Biological target: EF-Tu (6His-tagged EF-Tu, tufA) (Escherichia coli, UniProt P0CE47, E379A)
Experiment: biochemical

## CCCn1nnnc1NC(=O)c1cccc(Cl)c1 [KKL-55]
  Kd: 2400 nM

From publication PMC11409059, “Substitution of Glu378 in EF-Tu disrupts binding to KKL-55” (microPublication Biology, 2024)
